Like-named read-outs stand apart in the source and are kept apart here.
Assays:
[1] = system: orexin/tTA; Tet-O diphtheria toxin A mice (DTA mice); assay type: in vivo, mouse; conditions: 6 h after dosing at ZT12; for cataplexy (C) time: Compound I-19 0.3, 1, 3 mg/kg i.p., Compound I-4 0.3, 1, 3 mg/kg p.o., Des 5 mg/kg p.o.
[2] = biological target: T1, OAT3 (Homo sapiens, UniProt Q8TCC7); experiment: Uptake transporter inhibition assay, OAT3 (estrone-3-sulfate); conditions: for inhibition at 500 μM: human
T1 sequence (Q8TCC7 1-542): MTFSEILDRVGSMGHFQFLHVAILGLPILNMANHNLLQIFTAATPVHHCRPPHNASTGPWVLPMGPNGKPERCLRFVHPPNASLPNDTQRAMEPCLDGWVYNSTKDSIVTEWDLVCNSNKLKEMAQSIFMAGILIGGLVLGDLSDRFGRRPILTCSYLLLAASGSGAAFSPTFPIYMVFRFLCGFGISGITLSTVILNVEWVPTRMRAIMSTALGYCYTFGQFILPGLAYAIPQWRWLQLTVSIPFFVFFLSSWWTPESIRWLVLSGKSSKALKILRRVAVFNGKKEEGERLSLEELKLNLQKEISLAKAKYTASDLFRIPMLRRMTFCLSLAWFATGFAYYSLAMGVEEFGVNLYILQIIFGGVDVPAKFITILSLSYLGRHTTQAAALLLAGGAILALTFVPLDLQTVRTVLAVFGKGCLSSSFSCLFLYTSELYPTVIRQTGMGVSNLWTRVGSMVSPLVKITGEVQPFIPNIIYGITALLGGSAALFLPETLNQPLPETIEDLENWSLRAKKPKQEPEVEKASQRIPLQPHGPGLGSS
Experimental: Uptake experiments were performed using HEK293 cells stably expressing the respective uptake transporters. The assays were conducted according to the actual SOLVO uptake transporter assay protocols (PR-ASY-UPT-General Protocol for Uptake Transporter Inhibition Assays).
Cells were cultured at 37° C. in a humidified atmosphere containing 5% CO2 and were plated onto standard 96-well tissue culture plates.
Before the experiment, the medium was removed, and the cells were washed twice with 100 μL of pre-warmed (37° C.) assay buffer listed in Table 15. The cells were pre-incubated at 37° C. for 30 minutes in assay buffer containing the test article at appropriate concentrations (Table 16), appropriate solvents for solvent controls and the reference inhibitor for reference inhibitor wells. After the pre-incubation step solutions were removed. Uptake experiments were performed at 37° C. in 50 μL of assay buffer containing the probe substrate and the test article or solvent and controls.
After the experiment, cells were washed twice with 100 μL of appropriate cold buffer and lysed with 150 μL scintillation cocktail. Radiolabeled probe substrate transport was determined by liquid scintillation counting.
Uptake of the probe substrate in control cells provided background activity values for all data points.

[3] = system: human red blood cells; experiment: Hemolysis study in human blood; assay type: cell-based; conditions: 60 min, 37° C.
Experimental: (§1) FIG. 4A. […] Compound I-19 in human blood. Red blood cells were isolated from whole blood and resuspended in PBS. […] (final concentrations 25, 50, and 100 μM) and the mixtures were incubated at 37° C. for 60 min. After the incubation, the samples were centrifuged and the absorbance of 100 μL of supernatant was read at 410 nm. % RBC lysis is expressed relative to 100% lysis control. Values represent mean+SEM of n=3 separate experiments.
FIG. 4B. Hemolytic Potential of Compound I-4 in human blood. Red blood cells were isolated from whole blood and resuspended in PBS. 190 μL of diluted RBC suspension and 10 μL of Compound I-4 solutions were mixed at 0 min. (final concentrations 25, 50, and 100 μM) and the mixtures were incubated at 37° C. for 60 min. After the incubation, the samples were centrifuged and the absorbance of 100 μL of supernatant was read at 410 nm. % RBC lysis is expressed relative to 100% lysis control. Values represent mean+SEM of n=3 separate experiments.
(§2) FIG. 4C. Hemolytic Potential of Amphotericin B in human blood (positive assay control). Red blood cells were isolated from whole blood and resuspended in PBS. 190 μL of diluted RBC suspension and 10 μl of amphotericin B solutions were mixed at 0 min. (final concentrations 1, 10, 30, and 100 μM) and the mixtures were incubated at 37° C. for 60 min. After the incubation, the samples were centrifuged and the absorbance of 100 μL of supernatant was read at 410 nm. % RBC lysis is expressed relative to 100% lysis control. Values represent mean+SEM of n=3 separate experiments.
(§3) To a clear 96-well V-bottom polystyrene plate, the test articles (10 μL) and the diluted RBCs (190 μL) from human or rat blood were mixed for final concentrations of 25, 50, and 100 μM. The reaction mixture was incubated at 37° C. for 60 min. Following the exposure period, the plates were centrifuged. After centrifugation, 70 μL of supernatant (without disturbing the pellet) was transferred to a clean and clear polystyrene flat bottomed 96-well plate and the absorbance of the sample at a single wavelength was measured using a BioTech Synergy H1 Plate Reader at a wavelength of 410 nm. The positive control for this assay was amphotericin B test at concentrations of 1, 10, 30, and 100 μM.

[4] = system: rat red blood cells; experiment: Hemolysis study in rat blood; assay type: cell-based; conditions: 60 min, 37° C.
Experimental: as §1, with “6A.” for “4A.”, “rat” for “human”
as §1, with “6B.” for “4A.”, “rat” for “human”, “μl” for “μL”
as §2, with “6C.” for “4C.”, “rat” for “human”, “μL” for “μl”
as §3

[5] = system: Wistar rats; assay type: in vivo, Wistar rat
Experimental: Animals were trained in eight automated 5C-SRTT operant chambers (Med Associates, St. Albans, VT, USA), controlled by MedPC software (Med Associates). Briefly, each operant chamber was equipped with 5 apertures containing a photocell beam to detect nose pokes and a lamp (2.8 W) that could be illuminated randomly at varying durations. Food pellets (45 mg chow pellet, BioServ, Frenchtown, NJ, USA) were delivered automatically to a magazine, located on the opposite wall to the nose pokes, that was also equipped with a light that turned on to indicate that a pellet had been dispensed. The house-light remained on for the entire session unless an error or omission occurred. Training sessions began with the delivery of a food reward and retrieval triggered the first trial. […] Training began with the stimulus duration set at 10 sec, a limited hold period of 5 sec and an ITI of 5 sec. […] Sessions ended when 40 minutes had lapsed or 100 trials had been completed.
Upon meeting the performance criteria, animals were assessed in the vSD version of the task where the following stimulus durations were presented in a pseudorandom manner: 0.3, 0.6 and 0.9 sec. Later, subjects were assessed in the vITI version where 2.5, 5.0 and 10.0 sec ITIs were employed in a pseudorandom manner. Performance parameters measured were: % hit ((# correct/(# correct+# incorrect including omissions))×100); % correct ((# correct/(# correct+# incorrect excluding omissions))×100); premature responses (# of nose-pokes into any aperture after trial initiation but before onset of the stimulus light); timeout responses (# of nose pokes into any aperture during a timeout period), perseverative responses (# of nose pokes occurring after the correct response had been made but before reward collection); # of food magazine head entries, omissions and total trials completed. The latency to correct response (time taken from the onset of the nose poke light stimulus to making the correct nose poke response), latency to incorrect response (time taken from onset of nose poke light stimulus to making the incorrect nose poke response), and latency to reward (i.e., the magazine latency, time taken from making a correct nose poke response to retrieving the reward from the magazine) was also recorded.
Drug doses and vehicle were administered in a pseudorandom fashion. Drug or vehicle sessions were performed 1-2 times per week with maintenance training (behavioral testing without drug or vehicle injections) interspersed.
All data were collated and entered into Microsoft Excel spreadsheets. The data were subsequently imported into StatView 5.0 for statistical analyses. One and two factor analysis of variance (ANOVA) tests were used with repeated measures when indicated, followed by Fisher LSD or Student Newman Keuls as post-hoc tests. All results were expressed as the mean (±S.E.M.). Differences between means from experimental groups were considered significant at the p<0.05 level. The statistical F values and degrees of freedom associated with the two factor ANOVA analyses are provided in the text of this report. Please refer to the statistical reports in the appendices for the values associated with one factor ANOVAs for the overall means and overall total values.

[6] = test articles 25, 50, 100 μM, amphotericin B 1, 10, 30, 100 μM

Compound: CNCCCN1c2ccccc2CCc2ccccc21 [Desipramine, reference compound]
- latency to REM (effect) [1]: increased the latency to REM onset
- cataplexy (C) time [1]: decreased significantly for the first 2 h post administration but was not significant overall
- cataplexy (C) time ([1]; listed as Des): decreased for the first 2 h post administration but was not significant overall
- REM time ([1]; same doses): overall reduction in REM sleep did not reach significance

Compound: CCCN(CCC)S(=O)(=O)c1ccc(C(=O)O)cc1 [Probenecid]
- Transporter specific accumulation ([2]; 500.00 μM nominal, E3S, Table 130): 291.67 ± 17.04 cpm
- Relative transporter specific accumulation ([2]; 500.00 μM, reference inhibitor): 1.68 ± 0.31 % of control
- inhibition at 500 μM ([2]; Relative Inhibition, 500.00 μM nominal, E3S, Table 130): 98%
- inhibition at 500 μM ([2]; Relative inhibition, 500.00 μM, reference inhibitor): 97%

Compound: C[C@@H]1[C@H](O)[C@@H](C)/C=C/C=C/C=C/C=C/C=C/C=C/C=C/[C@H](O[C@@H]2O[C@H](C)[C@@H](O)[C@H](N)[C@@H]2O)C[C@@H]2O[C@](O)(C[C@@H](O)C[C@@H](O)[C@H](O)CC[C@@H](O)C[C@@H](O)CC(=O)O[C@H]1C)C[C@H](O)[C@H]2C(=O)O [amphotericin B, reference compound]
- EC50 ([3]; read-out: EC50 (% RBC lysis)): 7.06 µM
- % RBC lysis (hemolytic potential) [3, 6]: dose-dependent increase in % RBC lysis
- EC50 ([4]; read-out: EC50 (% RBC lysis)): 4.73 µM
- % RBC lysis (hemolytic potential) [4, 6]: dose-dependent increase in % RBC lysis

Compound: CN1CCCC1c1cccnc1 (stereo not shown) [nicotine, Nicotine, reference compound]
- % hit rate ([5]; nicotine 0.05-0.2 mg/kg sc, Compound I-4 0.1-3.0 mg/kg ip, Compound I-19 0.03-1.0 mg/kg ip): increase in the % hit rate
- % correct ([5]; same doses): no statistically significant effects
- Magazine Head Entries ([5]; same doses): increase in the number of premature responses, timeout responses, magazine head entries
- Omissions ([5]; same doses): decrease in omissions
- number of trials completed ([5]; same doses): no effect on the total number of trials completed
- perseverative responses ([5]; same doses): no statistically significant effects on perseverative responses or reward latencies
- premature responses ([5]; same doses): the higher 2 doses of nicotine were associated with an increase
- response latencies (correct, incorrect) ([5]; same doses): modest decrease in the response latencies associated with correct responses
- reward latencies ([5]; same doses): no statistically significant effects on perseverative responses or reward latencies
- timeout responses ([5]; same doses): increase in the number of premature responses, timeout responses, magazine head entries
